The subject of one experiment is DNA. Kind of experiment: Binding affinity to calf thymus DNA. In kind it is nucleic-acid assay, Bos taurus.
The test system of a further experiment is B16. Description: Cytotoxicity against mouse B16 cells. In kind it is functional, cell-based.
The next experiment has as its system HepG2. Kind of experiment: Cytotoxicity against human HepG2 cells. In kind it is functional, cell-based.
Experiment [1] is described as follows: Cytotoxicity against mouse LLC cells. The experiment is classed as functional, cell-based. Conditions: Lewis lung carcinoma.

Some results are limits rather than exact numbers.

Usually IC50 stands for the concentration needed to halve the response being measured. Consider `COc1cc(OC)c2c(c1)C(=O)c1cc(C)cc3c1c-2nn3CCN1CCN(C)CC1`, for which, in the experiment on DNA, the Kb is 698000 M⁻¹. For the same compound, the IC50 stood at 20.1 µM in the experiment on B16, 7.2 µM in the experiment on HepG2 and 8.9 µM in experiment [1].
In the same order, the values of `CCN(CC)CCNCCn1nc2c3c(cc(C)cc31)C(=O)c1cc(OC)cc(OC)c1-2` are 253000 M⁻¹, 10.1 µM, 37.6 µM and 12.8 µM.
`Cc1cc(O)c2c(c1)C(=O)c1cc(O)cc(O)c1C2=O` [EMODIN] registered a Kb with DNA of 68000 M⁻¹. Also, the values for the IC50 (in the experiment with B16; in the experiment on HepG2; in experiment [1]) were above 100 µM, 55.1 µM and above 100 µM, respectively.
`CCN(CC)CCn1nc2c3c(cc(C)cc31)C(=O)c1cc(OC)cc(OC)c1-2`: the Kb in the experiment with DNA turned out to be 552000 M⁻¹. In addition, the IC50 with B16 came out at 3.6 µM; in the experiment with HepG2 it was 4.9 µM; in experiment [1] it was 4.5 µM.

For the origin of these results see ChEMBL document CHEMBL1147960, “Spectroscopic studies of DNA binding modes of cation-substituted anthrapyrazoles derived from emodin” (Eur J Med Chem, 2007).
